Measurements as given in US20030065192A1, “Antimicrobial compounds and methods of use” (priority 2001, published 2003).

What was measured:
Escherichia coli 8739 = assay: High resolution minimum inhibitory concentration (HRMIC) test, E. coli; type: cell-based; settings: ppm active ingredient; M9GY medium, 30° C., 24 hours; average of multiple determinations
Method: (§1) Biological Activity: certain compounds of the present invention were tested for activity against three microorganisms, Escherichia coli 8739 (Gram-negative bacterium) and Staphylococcus aureus 6538 (Gram-positive bacterium) and Aspergillus niger 16404.
(§2) The lowest concentration of test compound required to inhibit Staphylococcus aureus 6538, Escherichia coli 8739 and Aspergillus niger 16404 was determined by a high resolution minimum inhibitory concentration (HRMIC) test. Varying amounts of the test compounds were added to minimal salts glucose medium (see T. Maniatis, E. F. Fritsch and J. Sambrook, Molecular Cloning, p 68 (1982)) supplemented with 0.1% yeast extract (M9GY) in a 96-well microtiter plate. […] serial dilutions were performed on a Biomek™ 2000 Workstation to obtain a range of closely spaced concentrations of test compound as shown in Table 1 (based on dilutions of a 10,000 ppm active ingredient stock solution of the test compound). The plates were inoculated with cell suspension of inoculum and adjusted to provide about 10^6 CFU (colony forming units)/ml in each well. The microtiter plates were incubated at 30° C. for 24 hours and then checked (optical density at 650 nm using a microplate reader) for the presence or absence of microbial growth in each well. […] Data reported (ppm active ingredient) are the average of multiple determinations (see Table 2).

[1] = system: Staphylococcus aureus 6538; assay: High resolution minimum inhibitory concentration (HRMIC) test, S. aureus; type: cell-based; settings: for MIC (ppm) S. aur: ppm active ingredient, M9GY medium, 30° C., 24 hours, average of multiple determinations
Method: as §1, §2

Aspergillus niger 16404 = assay: High resolution minimum inhibitory concentration (HRMIC) test, A. niger; type: cell-based; settings: for MIC (ppm) A. niger: ppm active ingredient, M9GY medium, 30° C., 24 hours, average of multiple determinations; for control of fungal organisms (A. niger): result in words
Method: as §1, §2

Row | SMILES | MIC (ppm) E. coli (Escherichia coli 8739) | MIC (ppm) S. aur [1] | better control versus Gram-positive (S. aur) bacteria than compound 6 ([1]; relative to compound 6, from Table 2 MIC) | MIC (ppm) A. niger (Aspergillus niger 16404) | control of fungal organisms (A. niger) (Aspergillus niger 16404) | melting point
1 | CCCCCCCCn1sc(Sc2cccc[n+]2[O-])c(Cl)c1=O [Compound 5, [4-chloro-2-n-octyl-3-isothiazolon-5-yl]-(1-oxypyridin-2-yl)sulfide] | 30 ppm | 0.9 ppm | 5 fold | 10 ppm | effective control | 
2 | Cn1sc(Sc2nc3ccccc3s2)cc1=O [Compound 6, [2-methyl-3-isothiazolon-5-yl]-(benzothiazol-2′-yl)sulfide, reference compound] | >1000 ppm | 5 ppm |  | 15 ppm |  | 
3 | Cn1sc(Sc2cccc[n+]2[O-])cc1=O [Compound 3, [2-methyl-3-isothiazolon-5-yl]-(1-oxypyridin-2-yl)sulfide] |  |  |  |  | effective control | 141 to 143 °C
